# Measured values: PubChem BioAssay (NCI)
#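 In this assay, cells in 96-well plates receive the compound at five concentrations for 48 hours. Endpoints are linearly interpolated between the surrounding concentrations. Definition used: TGI = concentration required for complete inhibition of growth.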
# Experiments:
# Assay in all cases: NCI tumour cell line growth inhibition, 48 h
# [1] = test system: HCT-15 colon
# [2] = test system: UACC-62 melanoma
# [3] = test system: NCI-H226 lung
# [4] = test system: OVCAR-4 ovarian
# [5] = test system: MDA-N
# [6] = test system: TK-10 renal
# [7] = test system: DU-145 prostate
# [8] = test system: SNB-19 CNS
# [9] = test system: M14 melanoma
# [10] = test system: MALME-3M melanoma
# [11] = test system: HT29 colon
# [12] = test system: HS 578T breast
# [13] = test system: 786-0 renal
# [14] = test system: T-47D breast
# [15] = test system: SK-MEL-2 melanoma
# [16] = test system: U251 CNS
# [17] = test system: BT-549 breast
# [18] = test system: UACC-257 melanoma
# [19] = test system: NCI/ADR-RES ovarian
# [20] = test system: LOX IMVI melanoma
# [21] = test system: MDA-MB-231 breast
# [22] = test system: HOP-62 NSCLC
# [23] = test system: OVCAR-3 ovarian
# [24] = test system: KM12 colon
# [25] = test system: SK-MEL-5 melanoma
# [26] = test system: RXF 393 renal
# [27] = test system: NCI-H522 lung
# [28] = test system: NCI-H460 lung
# [29] = test system: SF-295 CNS
# [30] = test system: HL-60(TB) leukemia
# [31] = test system: SN12C renal
# [32] = test system: HOP-92 NSCLC
# [33] = test system: PC-3 prostate
# [34] = test system: SF-268 CNS
# [35] = test system: A498 renal
# [36] = test system: MOLT-4 leukemia
# [37] = test system: ACHN renal
# [38] = test system: SW-620 colon
# [39] = test system: OVCAR-5 ovarian
# [40] = test system: HCC-2998 colon
# [41] = test system: OVCAR-8 ovarian
# [42] = test system: CCRF-CEM leukemia
# [43] = test system: HCT-116 colon
# [44] = test system: MCF7 breast
# [45] = test system: SF-539 CNS
# [46] = test system: COLO 205 colon
# [47] = test system: EKVX NSCLC
# [48] = test system: UO-31 renal
# [49] = test system: NCI-H23 lung
# [50] = test system: SK-MEL-28 melanoma
# [51] = test system: IGROV1 ovarian
# [52] = test system: K-562 leukemia
# [53] = test system: SK-OV-3 ovarian
# [54] = test system: CAKI-1 renal
# [55] = test system: MDA-MB-435
# [56] = test system: A549 NSCLC
# [57] = test system: SNB-75 CNS
# [58] = test system: RPMI-8226 leukemia
# [59] = test system: SR leukemia
structure (smiles),measurement,setting,value
Cc1cc(C)c2c(=O)n(CN3CCN(c4ccccc4)CC3)sc2n1,TGI,[1],50.7 µM
same,TGI,[2],> 100 µM
same,TGI,[3],> 100 µM
same,TGI,[4],> 100 µM
same,TGI,[5],60.4 µM
same,TGI,[6],> 100 µM
same,TGI,[7],63.3 µM
same,TGI,[8],> 100 µM
same,TGI,[9],76.6 µM
same,TGI,[10],> 100 µM
same,TGI,[11],34.6 µM
same,TGI,[12],> 100 µM
same,TGI,[13],31.4 µM
same,TGI,[14],33.8 µM
same,TGI,[15],33.9 µM
same,TGI,[16],56.2 µM
same,TGI,[17],> 100 µM
same,TGI,[18],> 100 µM
same,TGI,[19],52.7 µM
same,TGI,[20],44.1 µM
same,TGI,[21],39.5 µM
same,TGI,[22],> 100 µM
same,TGI,[23],99.6 µM
same,TGI,[24],> 100 µM
same,TGI,[25],> 100 µM
same,TGI,[26],25.7 µM
same,TGI,[27],32.5 µM
same,TGI,[28],> 100 µM
same,TGI,[29],> 100 µM
same,TGI,[30],41.5 µM
same,TGI,[31],87 µM
same,TGI,[32],> 100 µM
same,TGI,[33],40.5 µM
same,TGI,[34],> 100 µM
same,TGI,[35],> 100 µM
same,TGI,[36],58.7 µM
same,TGI,[37],35.2 µM
same,TGI,[38],> 100 µM
same,TGI,[39],49.2 µM
same,TGI,[40],> 100000 nM
same,TGI,[41],> 100 µM
same,TGI,[42],> 100 µM
same,TGI,[43],35.1 µM
same,TGI,[44],> 100 µM
same,TGI,[45],37.5 µM
same,TGI,[46],41.3 µM
same,TGI,[47],70.1 µM
same,TGI,[48],40.7 µM
same,TGI,[49],85.2 µM
same,TGI,[50],> 100 µM
same,TGI,[51],> 100 µM
same,TGI,[52],> 100 µM
same,TGI,[53],> 100 µM
same,TGI,[54],39.4 µM
same,TGI,[55],> 100 µM
same,TGI,[56],> 100 µM
same,TGI,[57],42.7 µM
Nc1ccc(-c2nc3cc(F)ccc3s2)cc1Br,TGI,[1],> 65.1 µM
same,TGI,[2],> 100 µM
same,TGI,[4],> 100 µM
same,TGI,[5],> 100 µM
same,TGI,[7],> 100 µM
same,TGI,[8],> 100 µM
same,TGI,[9],> 100 µM
same,TGI,[10],> 100 µM
same,TGI,[11],> 100 µM
same,TGI,[12],> 100 µM
same,TGI,[13],> 100 µM
same,TGI,[14],> 100 µM
same,TGI,[15],> 100 µM
same,TGI,[16],57.8 µM
same,TGI,[17],> 74.1 µM
same,TGI,[18],> 100 µM
same,TGI,[19],> 100 µM
same,TGI,[20],> 100 µM
same,TGI,[21],> 73.2 µM
same,TGI,[22],> 100 µM
same,TGI,[23],> 100 µM
same,TGI,[24],> 100 µM
same,TGI,[25],> 100 µM
same,TGI,[26],> 100 µM
same,TGI,[27],> 100 µM
same,TGI,[28],> 46 µM
same,TGI,[29],> 100 µM
same,TGI,[30],> 100 µM
same,TGI,[31],> 100 µM
same,TGI,[32],> 100 µM
same,TGI,[33],> 100 µM
same,TGI,[34],> 100 µM
same,TGI,[35],> 100 µM
same,TGI,[36],> 100 µM
same,TGI,[37],> 100 µM
same,TGI,[38],> 100 µM
same,TGI,[39],> 100 µM
same,TGI,[40],34.5 nM
same,TGI,[41],> 100 µM
same,TGI,[42],> 100 µM
same,TGI,[43],> 100 µM
same,TGI,[44],0.528 µM
same,TGI,[45],> 71.4 µM
same,TGI,[46],> 100 µM
same,TGI,[47],> 63.6 µM
same,TGI,[48],> 100 µM
same,TGI,[50],> 100 µM
same,TGI,[51],> 37.2 µM
same,TGI,[52],> 100 µM
same,TGI,[53],> 100 µM
same,TGI,[54],> 100 µM
same,TGI,[58],> 100 µM
same,TGI,[55],> 100 µM
same,TGI,[56],> 100 µM
same,TGI,[57],77.9 µM
O=C(CN1CCOCC1)c1ccc2[nH]c(=O)oc2c1,TGI,[1],> 100 µM
same,TGI,[2],> 100 µM
same,TGI,[3],> 100 µM
same,TGI,[5],> 100 µM
same,TGI,[6],> 100 µM
same,TGI,[7],> 100 µM
same,TGI,[8],> 100 µM
same,TGI,[9],> 100 µM
same,TGI,[10],> 100 µM
same,TGI,[11],> 100 µM
same,TGI,[12],> 100 µM
same,TGI,[59],> 100 µM
same,TGI,[13],> 100 µM
same,TGI,[15],> 100 µM
same,TGI,[16],> 100 µM
same,TGI,[17],> 100 µM
same,TGI,[18],> 100 µM
same,TGI,[19],> 100 µM
same,TGI,[20],> 100 µM
same,TGI,[21],> 100 µM
same,TGI,[22],> 100 µM
same,TGI,[23],> 100 µM
same,TGI,[24],> 100 µM
same,TGI,[25],> 100 µM
same,TGI,[26],> 100 µM
same,TGI,[28],> 100 µM
same,TGI,[29],> 100 µM
same,TGI,[30],> 100 µM
same,TGI,[31],> 100 µM
same,TGI,[33],> 100 µM
same,TGI,[34],> 100 µM
same,TGI,[35],> 100 µM
same,TGI,[36],> 100 µM
same,TGI,[37],> 100 µM
same,TGI,[38],> 100 µM
same,TGI,[39],> 100 µM
same,TGI,[41],> 100 µM
same,TGI,[42],> 100 µM
same,TGI,[43],> 100 µM
same,TGI,[44],> 100 µM
same,TGI,[45],> 100 µM
same,TGI,[46],> 100 µM
same,TGI,[47],> 100 µM
same,TGI,[48],> 100 µM
same,TGI,[49],> 100 µM
same,TGI,[50],> 100 µM
same,TGI,[51],> 100 µM
same,TGI,[52],> 100 µM
same,TGI,[53],> 100 µM
same,TGI,[54],> 100 µM
same,TGI,[58],> 100 µM
same,TGI,[55],> 100 µM
same,TGI,[57],> 100 µM
